Data taken from patent US20220371986A1, “METHOD TO GENERATE BIOCHEMICALLY REACTIVE AMINO ACIDS” (The Regents of the University of California, priority 2019, published 2022).

Tests used:
Type in all cases: cell-based
[1] = test system: E. coli; assay: E. coli growth in presence of FSY; conditions: 1 mM FSY in growth media
[2] = test system: HeLa-EGFP-182TAG reporter cells; assay: FACS analysis of Uaa incorporation into HeLa-EGFP-182TAG reporter cells; conditions: flow cytometry; positive control AzF with plasmid pIre-Azi3
Procedure: FSY incorporation into proteins in mammalian cells was tested. HeLa-EGFP-182TAG reporter cells were transfected with plasmid pMP-FSYRS-3×tRNA, which expresses FSYRS and tRNA^Pyl genes. Wang et al, Nat. Neurosci., 10:1063-1072 (2007). Suppression of the 182TAG codon would produce full-length EGFP rendering cells fluorescent. After transfection, cells were incubated with FSY of various concentrations at 37° C. for 24 or 48 h followed by flow cytometry. Strong EGFP fluorescence was measured from cells only when FSY was added. The fluorescence intensity increased with FSY concentration and incubation time. As a positive control, p-azido-L-phenylalanine (AzF) was incorporated into reporter cells in parallel using plasmid pIre-Azi3, which is the most efficient Uaa incorporation system in mammalian cells in our hands. […] No fluorescence signal was detected when FSY was not added.
FACS analysis of Uaa incorporation into HeLa-GFP-182TAG reporter cells: One day before transfection, 4.5×10^4 HeLa-EGFP-182TAG reporter cells (Wang et al, Nat. Neurosci., 10:1063-1072 (2007)) were seeded in a Greiner bio-one 24 well-cell culture dish containing 500 μL of DMEM media with 10% FBS, and incubated at 37° C. in a CO2 incubator. […] The cells were resuspended in 300 μL of FACS buffer (1×PBS, 2% FBS, 1 mM EDTA, 0.1% sodium azide, 0.28 μM DAPI) and analyzed by BD LSRFortessa™ cell analyzer.

[3] = test system: 293T cells; assay: Toxicity of FSY to 293T cells
[4] = test system: HeLa cells; assay: Toxicity and cell morphology of FSY in HeLa cells

Q: `N[C@@H](Cc1ccc(OS(=O)(=O)F)cc1)C(=O)O` [FSY, fluorosulfate-L-tyrosine] was tested. Which “cytotoxicity (E. coli growth)” value [1] did it give?
A: The value was “no obvious cytotoxicity”.

Q: What about the “Uaa incorporation (EGFP fluorescence) relative to the AzF level” value [2] of the same molecule?
A: Its value is 76%.

Q: And the “toxicity to 293T cells” value [3]?
A: Its value is “no obvious toxicity”.

Q: And the “toxicity to HeLa cells” value ([4]; FSY incubation 24 or 48 h)?
A: Its value is “no obvious toxicity”.

Q: And the “cell morphology (fluorescence confocal microscopy)” value ([4]; HeLa-EGFP-182TAG reporter cells in the presence of FSY)?
A: The value was “cell morphology remained normal”.
